{
  "source": "ChEMBL document CHEMBL5365490",
  "about": "“Enhanced tumor specific drug release by hypoxia sensitive dual-prodrugs based on 2-nitroimidazole” (Bioorg Med Chem Lett, 2023)",
  "key": {"[1]": {"test_system": "MIA PaCa-2", "assay": "Antiproliferative activity against human MIA-PaCa-2 cell assessed as inhibition of cell growth > 0.1 uM measured for 72 hrs under normoxia condition by MTT assay", "type": "functional, cell-based"}, "[2]": {"test_system": "MIA PaCa-2", "assay": "Antiproliferative activity against human MIA-PaCa-2 cells assessed as reduction in cell viability > 0.1 uM measured for 72 hrs under hypoxia condition by MTT assay", "type": "functional, cell-based"}, "[3]": {"assay": "Half life in PBS buffer at pH 7.4 measured upto 72 hrs by LC/MS analysis", "type": "physicochemical"}, "[4]": {"assay": "Stability of compound in human MIA Paca-2 cells homogenates assessed as remaining parent compound incubated for 24 hrs by LC/MS analysis", "type": "ADME, cell-based", "conditions": "mia paca-2, 24 h"}, "[5]": {"assay": "Stability of compound in human MIA Paca-2 cells homogenates assessed as remaining parent compound incubated for 6 hrs by LC/MS analysis", "type": "ADME, cell-based", "conditions": "mia paca-2, 6 h"}, "[6]": {"assay": "Chemical stability of compound in PBS at pH 7.4 assessed as remaining parent compound incubated for 6 hrs by LC/MS analysis", "type": "physicochemical", "conditions": "buffer, pH 7.4, 6 h"}, "[7]": {"assay": "Chemical stability of compound in PBS at pH 7.4 assessed as remaining parent compound incubated for 24 hrs by LC/MS analysis", "type": "physicochemical", "conditions": "buffer, pH 7.4, 24 h"}, "[8]": {"test_system": "MIA PaCa-2", "assay": "Antiproliferative activity against human MIA-PaCa-2 cells assessed as reduction in cell viability > 1 uM measured for 72 hrs under hypoxia condition by MTT assay", "type": "functional, cell-based"}, "[9]": {"assay": "Stability of compound in human MIA Paca-2 cells homogenates assessed as drug degradation incubated for 6 hrs by LC/MS analysis", "type": "ADME, cell-based", "conditions": "MIA PaCa-2 cell homogenates, read-out: Drug degradation"}, "[10]": {"assay": "Chemical stability of compound in PBS at pH 7.4 assessed as remaining parent compound after 1 hrs of incubation by LC/MS analysis", "type": "physicochemical", "conditions": "buffer, pH 7.4, 1 h"}, "[11]": {"assay": "Drug metabolism in human MIA PaCa-2 cells homogenates assessed as (S)-2-(2,3-dichloro-4H-thieno[3,2-b]pyrrole-5-carboxamido)-3-(2-nitro-1H-imidazol-1-yl)propanoic acid formation incubated for 24 hrs by LC/MS analysis", "type": "ADME, cell-based", "conditions": "mia paca-2, 24 h"}, "[12]": {"assay": "Drug metabolism in human MIA PaCa-2 cells homogenates assessed as gemcitabine formation incubated for 24 hrs by LC/MS analysis", "type": "ADME, cell-based", "conditions": "mia paca-2, 24 h"}},
  "note": "The source made the active and inactive calls. The rule behind the calls is not given here.",
  "data": [
    {"smiles": "Nc1ccn([C@@H]2O[C@H](CO)[C@@H](O)C2(F)F)c(=O)n1", "values": [
      {"measurement": "Activity", "setting": "[1]", "result": "Active"},
      {"measurement": "Activity", "setting": "[2]", "result": "Active"}
    ]},
    {"smiles": "Nc1nccn1C[C@@H](NC(=O)c1cc2sc(Cl)c(Cl)c2[nH]1)C(=O)Nc1ccc(COC(=O)Nc2ccn([C@@H]3O[C@H](CO)[C@@H](O)C3(F)F)c(=O)n2)cc1", "values": [
      {"measurement": "half-life", "setting": "[3]", "result": 40, "unit": "h"}
    ]},
    {"smiles": "O=C(Nc1ccn([C@@H]2O[C@H](CO)[C@@H](O)C2(F)F)c(=O)n1)OCc1ccc(NC(=O)[C@@H](Cn2ccnc2[N+](=O)[O-])NC(=O)c2cc3sc(Cl)c(Cl)c3[nH]2)cc1", "values": [
      {"measurement": "Stability", "setting": "[4]", "result": "Stable"},
      {"measurement": "Stability", "setting": "[5]", "result": "Stable"},
      {"measurement": "Stability", "setting": "[6]", "result": "Stable"},
      {"measurement": "Stability", "setting": "[7]", "result": "Stable"},
      {"measurement": "Activity", "setting": "[8]", "result": "Active"}
    ]},
    {"smiles": "Nc1ccn([C@@H]2O[C@H](COC(=O)[C@H](Cn3ccnc3[N+](=O)[O-])NC(=O)c3cc4sc(Cl)c(Cl)c4[nH]3)[C@@H](O)C2(F)F)c(=O)n1", "values": [
      {"measurement": "metabolised at 6 h", "setting": "[9]", "result": "> 50", "unit": "%"},
      {"measurement": "Stability", "setting": "[10]", "result": "Unstable"},
      {"measurement": "Drug metabolism", "setting": "[11]", "result": "Metabolite_Detected"},
      {"measurement": "Drug metabolism", "setting": "[12]", "result": "Metabolite_Detected"}
    ]}
  ]
}
